Reference: article PMC5034337 (Scientific Reports, 2016)

Columns and labels:
[1] = French farmers with detectable DOM-1 levels; cited from earlier work
[2] = in vivo
[3] = moderately exposed UK population; cited from earlier work
[4] = in vivo; cited from earlier work
[5] = test system: mammalian ribosomes; format: biochemical, rabbit
[6] = test system: Caco-2 cells
[7] = test system: HT-29 colon carcinoma cells
[8] = test system: primary human colon epithelial cells (HCEC-1CT)
[9] = test system: T24 bladder cancer cells

SMILES	share of the total urinary DON, average [1] [%]	detection in urine samples [2]	overall 24 h urinary excretion rate of total DON (sum of DON and its glucuronides), average [3] [%]	maximum urinary concentration [4] [µg/L]	concentration at which translation was completely inhibited [5] [µM]	concentration(s) with proliferative stimulus [6] [nM]	cytotoxic effect [6]	concentration from which a significant decrease of cell viability was detectable ([6]; human) [µM]	concentration(s) with proliferative stimulus [7] [µM]	cytotoxic effect [7]	concentration from which a significant decrease of cell viability was detectable ([7]; human) [µM]	cytotoxic effect [8]	concentration from which a significant decrease of cell viability was detectable ([8]; human) [µM]	concentration(s) with proliferative stimulus [9] [nM]	cytotoxic effect [9]	lowest concentration at which the proliferative effect was present [9] [nM]	concentration from which a significant decrease of cell viability was detectable ([9]; human) [µM]
C=C1[C@@H]2O[C@@H]3C=C(C)C(=O)[C@@H](O)[C@]3(CO)[C@@]1(C)C[C@H]2O [DOM-1, deepoxy-DON]	< 5	no DOM-1 was detected in any sample	–	–	–	–	–	–	–	–	–	–	–	–	–	–	–
CC1=C[C@H]2O[C@@H]3[C@H](O)C[C@](C)([C@@]2(CO)[C@H](O)C1=O)[C@]31CO1 [DON, deoxynivalenol]	–	–	72	275	20	10	concentration dependent cytotoxicity	10	0.1	concentration dependent cytotoxicity	10	concentration dependent cytotoxicity	1	0.1 to 10	concentration dependent cytotoxicity	0.1	1
